Earlier results, collected in patent US20230181442A1, “METHOD FOR DYEING KERATIN MATERIAL, COMPRISING THE USE OF AN ORGANOSILICON COMPOUND, HYALURONIC ACID (SALT), A DYEING COMPOUND AND A POST-TREATMENT AGENT” (Henkel AG & Co. KGaA, priority 2020, published 2023).

Conditions: for solubility in water: 25° C.

## CCN(Cc1cccc(S(=O)(=O)O)c1)c1ccc(C(=C2C=CC(=[N+](CC)Cc3cccc(S(=O)(=O)O)c3)C=C2)c2ccccc2S(=O)(=O)[O-])cc1 [Acid Blue 9]
  solubility in water: more than 20 wt. %

## O=S(=O)(O)c1ccc(N=Nc2c(O)ccc3ccccc23)cc1 [Acid Orange 7, 4-[(2-hydroxy-1-naphthyl)azo]benzene sulfonate]
  solubility in water: more than 7 g/L

## O=[N+]([O-])c1cc([N+](=O)[O-])c2ccc(S(=O)(=O)O)cc2c1O [Acid Yellow 9, 8-hydroxy-5,7-dinitro-2-naphthalenesulfonic acid]
  solubility in water: above 40 g/L

## O=C(O)C1=NN(c2ccc(S(=O)(=O)O)cc2)C(=O)C1N=Nc1ccc(S(=O)(=O)O)cc1 (stereo not shown) [Acid Yellow 23, 4,5-dihydro-5-oxo-1-(4-sulfophenyl)-4-((4-sulfophenyl)azo)-1H-pyrazole-3-carboxylic acid]
Water at 25° C.
  solubility in water (in words): highly soluble
